In paper PMC5656322, “BAK1 is involved in AtRALF1-induced inhibition of root cell expansion” (PLoS Genetics, 2017):
Where no end group is shown, it is not given here.

Columns and labels:
[1] = system: BAK1 gene; test: BAK1 gene expression in roots (semi-quantitative RT-PCR and qRT-PCR); type: in vivo, Arabidopsis thaliana; conditions: 1 μM, 1 h, Arabidopsis seedlings
Procedure: Arabidopsis plants were grown for 10 days in vertical plates and then treated in liquid medium containing 1 μM AtRALF1 for 1 h at room temperature. Control plants were incubated under identical conditions in a peptide-free medium. The total RNA was isolated from the roots of Arabidopsis plants using TRIzol reagent according to the manufacturer’s instructions (Life Technologies). The cDNA was synthesized using the ImProm-II Reverse Transcription System (Promega) and 1 μg of RNA. An aliquot of cDNA (1.5 μl) was used as the template in the PCR reaction, which was performed for 29 cycles, unless indicated otherwise, using gene-specific primers (S1 Table). The glyceraldehyde 3-phosphate dehydrogenase (GAPDH) gene was used as an internal control. All experiments were repeated at least three times with independent biological replicates. The data shown are from one representative experiment.
The qRT-PCR analysis was performed using 10-fold-diluted cDNA, Maxima SYBR Green Rox/qPCR Master Mix (Thermo Scientific) and a StepOne Real-Time PCR System (Applied Biosystems). The glyceraldehyde 3-phosphate dehydrogenase (GAPDH) gene was used as an internal control. […] The threshold cycle (CT) was determined by the instrument, and the ΔΔCT method was used to calculate the fold change in each gene. […] Three replicates were analyzed for each biological sample, and two biological samples were analyzed. […]

[2] = system: BRI1 (BRI1-ECD); test: Yeast two-hybrid with BRI1-ECD; type: binding, Arabidopsis thaliana; conditions: yeast AH109, medium lacking Leu, Trp, His
Text: Fig 6 AtRALF1 interacts physically with BAK1 protein. (A) The active AtRALF1 peptide interacts with the extracellular domain (ECD) of BAK1 (BAK1-ECD) in yeast. The AtRALF1 protein fused to the GAL4 DNA-binding domain (AtRALF1-pGBKT7) was used as bait to test its interaction with the extracellular domain of the proteins fused to the GAL4 activation domain (pGADT7): BAK1 (BAK1-ECD), BAK7 (BAK7-ECD), BRI1 (BRI1-ECD) and FLS2 (FLS2-ECD). (B) Blueprint showing the truncated proteins from the extracellular domain of BAK1 tested in the two-hybrid assay. The extracellular domain of BAK1 comprises leucine zippers (LZ), 5 leucine rich-regions (LRRs) and a proline-rich region (pro-rich). (C) AtRALF1-pGBKT7 was used as bait to test its interaction with truncated proteins fused to the GAL4 activation domain (pGADT7). […] HA-BAK1-ECD was detected with an anti-HA antibody. AtRALF1 was detected with an anti-RALF antibody. […] BAK1-GFP was detected with an anti-GFP antibody. […]
The coding regions of the mature peptides AtRALF1 and AtRALF34 were amplified from Arabidopsis genomic DNA and fused to the GAL4 DNA-binding domain and the MYC epitope tag using the NdeI/BamHI sites in the pGBKT7 (Clontech) vector. […] The proteins fused to the HA and MYC epitope tags were detected by protein blotting. […]

For “AtRALF1: root-specific RALF isoform in Arabidopsis; recombinant peptide hormone produced in E. coli (ATTKYISYQSLKRNSVPCSRRGASYYNCQNGAQANPYSRGCSKIARCRS; ends and bridges not checked; cysteine pairing not given here)”, the “BAK1 gene expression in roots” value [1] was “induced BAK1 gene expression in the roots up to levels found in untreated p35S:AtRALF1 roots” and the “interaction with BRI1-ECD (Y2H complementation)” value [2] was “able to complement only the BAK1-ECD construct”.
